According to PubChem BioAssay AID2753 (Vanderbilt High Throughput Screening Facility, 2010):
Active and inactive are the calls of the source. No rule for the calls is given here.

The compounds below were run against ATP-sensitive inward rectifier potassium channel 1 (Homo sapiens) (UniProt P48048) (assay: concentration-response of Kir1.1 channel inhibition – cell-based, thallium flux, HEK293, dose response (AID 2753)). Settings: HEK293 ROMK thallium flux, fluorescence.
ATP-sensitive inward rectifier potassium channel 1 (Homo sapiens), sequence (P48048 whole entry, looked up): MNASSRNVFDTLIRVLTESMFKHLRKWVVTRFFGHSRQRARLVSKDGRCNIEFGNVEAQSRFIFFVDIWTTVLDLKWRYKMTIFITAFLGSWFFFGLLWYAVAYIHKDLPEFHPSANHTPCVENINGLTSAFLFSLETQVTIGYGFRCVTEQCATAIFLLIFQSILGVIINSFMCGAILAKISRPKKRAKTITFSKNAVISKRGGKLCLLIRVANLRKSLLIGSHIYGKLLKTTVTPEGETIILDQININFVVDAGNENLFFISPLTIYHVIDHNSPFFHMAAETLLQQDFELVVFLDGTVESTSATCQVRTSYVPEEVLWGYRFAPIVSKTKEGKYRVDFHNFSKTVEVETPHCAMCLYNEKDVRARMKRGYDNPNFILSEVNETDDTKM

| SMILES | IC50 |
| --- | --- |
| CS(=O)(=O)n1nc(OC(=O)c2cc(Br)ccc2Cl)cc1N | inactive |
| O=C1ON=C(c2cccc([N+](=O)[O-])c2)/C1=C/c1ccc(O)cc1 | 5.68 µM |
| COc1cc(NC(=O)C2CCN(S(=O)(=O)c3ccc(Cl)cc3)CC2)ccc1-n1cnnn1 | 2.1 µM |
| O=C1CCCCCN1Sc1ccccc1 | 4.49 µM |
| CN(CCCC(=O)Nc1ccncc1)S(=O)(=O)c1ccc(Cl)cc1 | inactive |
| O=C(c1ccc([N+](=O)[O-])cc1)N(Cc1ccc(Br)cc1)N1C(=O)CCCC1=O | 0.32 µM |
| CC(=O)c1c(C)nc(-c2cccc([N+](=O)[O-])c2)n1O | inactive |
| COC(=O)/C=C1/SC(=NC(=O)c2ccc(F)cc2)NC1=O | 19.1 µM |
| CC1=NOC(=O)/C1=C\c1ccc(-c2ccccc2Br)o1 | inactive |
| c1csc(CNc2ncnc3sccc23)c1 | inactive |
| CCc1cccc(NC(=O)CSC2=NS(=O)(=O)c3ccccc32)c1 | inactive |
| Cc1cc(NC(=O)/C=C/C(=O)N(CC(=O)NC2CCCC2)c2cccc3ccccc23)no1 | 9.96 µM |
| CCOc1ccccc1N(CC(=O)N1CCOCC1)S(=O)(=O)c1ccc(SC)cc1 | 1.4 µM |
| N#C/C(=C\c1ccncc1)c1nc2ccccc2[nH]1 | inactive |
| CC(C(=O)c1ccc(-c2ccccc2)cc1)[n+]1cccc(NC(=O)c2ccccc2)c1 (stereo not drawn) | 27.9 µM |
| CCN1C(=O)c2cccc3c(S(=O)(=O)Nc4ccccc4OC)ccc1c23 | inactive |
| Cc1nn(-c2ccccc2)c(Cl)c1/C=C(\C#N)C(=O)NC(C)C | 45.5 µM |
| CCOC(=O)N1CCN(S(=O)(=O)c2ccc3c(c2)SCC(=O)N3)CC1 | inactive |
| O=C(CCl)N(c1ccccc1)c1ccccc1 | inactive |
| CCN(CC)S(=O)(=O)c1ccc(OC)c(NC(=O)CSc2cc(C)ccc2C)c1 | 12.8 µM |
| COc1ccc2c(c1OC)C(=O)OC2Nc1nc(-c2cc3ccccc3oc2=O)cs1 (stereo not drawn) | inactive |
| C=CCNC(=O)/C(C#N)=C\c1cc(Cl)c(OCC)c(OC)c1 | 86.8 µM |
| COC(=O)C1=C(C)N(C)C(C)=C(C(=O)OC)C1c1ccccc1C | 39.9 µM |
| O=C(c1nnsc1S(=O)c1ccc(Cl)cc1)N1CCOCC1 (stereo not drawn) | 2.2 µM |
| Cc1ccccc1-n1sc2cc(F)ccc2c1=O | inactive |

| SMILES | IC50 |
| --- | --- |
| CCOC(=O)c1c(C)n(C)c2ccc(OC)c(NC(=O)CN3CCCCC3)c12 | 7.88 µM |
| CC(=O)c1ccc(N/N=C(/C(N)=O)C2=NC(C)(C)Cc3ccccc32)cc1 | 26.9 µM |
| CCCCC1(CCCC)C(=O)NC(=Nc2cccc(C)c2)NC1=O | 3.01 µM |
| N#CC1=C(N)N(c2ccccc2)C(c2ccccc2)C1(C#N)C#N (stereo not drawn) | 32.2 µM |
| CC1CCCCC1NC(=O)/C(C#N)=C/c1ccccc1F (stereo not drawn) | 4.75 µM |
| COC(=O)Cn1cc(/C=C/[N+](=O)[O-])c2ccccc21 | 63 µM |
| Cn1c(=O)c([N+](=O)[O-])c(Cl)c2ccccc21 | 5.56 µM |
| COC(=O)c1cc([N+](=O)[O-])c(-n2cncn2)c([N+](=O)[O-])c1 | 5.07 µM |
| CC(C)C(c1nnnn1Cc1ccccc1)N1CCN(Cc2ccc3c(c2)OCO3)CC1 (stereo not drawn) | 5.83 µM |
| CCOCCCNC(=O)/C(C#N)=C/c1ccccc1F | inactive |
| Cc1cc2c(cc1S(=O)(=O)N(C)c1ccccc1)NC(=O)CO2 | 0.909 µM |
| CC(NC(=O)/C(C#N)=C/c1cccs1)c1ccccc1 (stereo not drawn) | 69.5 µM |
| CNC(=O)c1nnsc1S(=O)c1ccc(Cl)cc1 (stereo not drawn) | 0.647 µM |
| COC(=O)[C@@]1(Cc2ccccc2)[C@@H]2C(=CC(=O)[C@H]2CC(=O)C(=O)N(C)C)CN1C(=O)c1ccccc1 | 81 µM |
| N#C/C(=C/c1cc(Br)cs1)C(=O)NCC1CCCO1 (stereo not drawn) | inactive |
| COc1cc2c(cc1OC)C(/C=C/c1ccco1)=NCC2 | 4.07 µM |
| O=C(Nc1ccc2oc(=O)ccc2c1)c1cc([N+](=O)[O-])ccc1N1CCOCC1 | 3.41 µM |
| CC1CCN(C(=O)CSCC(=O)Nc2nc(-c3cccs3)cs2)CC1 | inactive |
| Cc1cc(Cl)c(S(=O)(=O)Nc2ccc3c(c2)OCCO3)cc1OCC(=O)NC1CCCCC1 | 3.55 µM |
| Cc1cc(C)n2nc(/C(C#N)=C/c3ccccn3)c(C#N)c2n1 | 88.3 µM |
| COc1cc(/C=C2\C(=N)N3N=CSC3=NC2=O)cc(Br)c1OC(=O)c1ccco1 | 4.53 µM |
| CCCCNC(=O)/C(C#N)=C/c1ccc(F)cc1F | 3.93 µM |
| CC(/C=C1\SC(=S)N(CCCC(=O)Nc2ccc(C(=O)O)cc2)C1=O)=C\c1ccccc1 | 120 µM |
| Cc1ccc(C2=NOC(=O)/C2=C\c2ccc(C)o2)cc1 | 5.22 µM |
| Cn1c(/C(C#N)=C/c2cccc(O)c2)nc2ccccc21 | inactive |

| SMILES | IC50 |
| --- | --- |
| O=c1c2ccccc2nc(/C=C/c2ccc([N+](=O)[O-])o2)n1CCCO | inactive |
| COc1ccc(CNCC(O)COc2ccc(C)cc2[N+](=O)[O-])cc1 (stereo not drawn) | inactive |
| Cc1ccc2nc(NC(=O)C(NS(=O)(=O)c3cccc4nsnc34)C(C)C)sc2c1 (stereo not drawn) | inactive |
| COc1cc(/C=C(/C(=O)c2cccs2)c2nc3ccccc3[nH]2)ccc1O | inactive |
| COc1cc(NC(C)=O)c2ncccc2c1[N+](=O)[O-] | 21.1 µM |
| CCOC(=O)c1c(NC(=O)C[n+]2ccc(Cc3ccccc3)cc2)sc(C)c1C | inactive |
| C[n+]1c2n(c3ccccc31)N=C(c1cc(C(C)(C)C)c(O)c(C(C)(C)C)c1)CS2 | 73.3 µM |
| CCCNC(=O)c1nnsc1S(=O)(=O)c1ccc(Cl)cc1 | 9.69 µM |
| CC(C)c1[nH]nc2c1C(c1cccs1)C(C#N)=C(N)O2 (stereo not drawn) | inactive |
| Cc1ccc2[nH]cc(C(=O)CCl)c2c1 | 4.14 µM |
| Cc1c(Nc2cc(Cl)c3nonc3c2[N+](=O)[O-])c(=O)n(-c2ccccc2)n1C | 52.8 µM |
| CCCS(=O)(=O)c1nnnn1-c1cccc(OC)c1 | inactive |
| Cn1nc(C(F)(F)F)c(C#N)c1N1CCN(c2ccccc2)CC1 | 15.2 µM |
| O=C1N=C2SCCN2/C1=C\c1ccc(Cl)cc1 | 4.79 µM |
| CCOC(=O)c1ccc(-n2c(O)c(/C=N/NC(=O)C3COc4ccccc4O3)c3ccccc3c2=O)cc1 (stereo not drawn) | inactive |
| N#C/C(=C\c1ccc(Cl)c([N+](=O)[O-])c1)c1ccccn1 | 3.6 µM |
| Cc1ccc(/C=C(\C#N)C(=O)NCCN2CCOCC2)cc1 | inactive |
| O=C1C=CC(=O)C(C2=C3C(=O)N(CCc4ccccc4)CC(=O)N3CCC2)=C1 | 13 µM |
| Cc1ccc(C(C)C)c(OCC(=O)NN=C(CCl)CCl)c1 | inactive |
| CNC(=O)c1nnsc1S(=O)(=O)c1ccc(Cl)cc1 | 7.46 µM |
| CCC(CC)C(=O)Nc1c2cnn(-c3ccccc3)c2nc(=O)n1-c1ccccc1 | 14 µM |
| COc1cccc(/C=C2\SC(=S)N(N3C(=O)CCCC3=O)C2=O)c1 | inactive |
| CSC1=C(C#N)C(=O)NC(c2ccccc2O)S1 (stereo not drawn) | 7.63 µM |
